Assay results reported in patent US10308671B2, “Water-soluble derivatives of 3,5-diphenyl-diazole compounds” (Max-Planck-Gesellschaft zur Förderung, priority 2015, dated 2019).
In brackets after ≈: the same amount, converted by molar mass. Read-outs that look alike come from different tables or passages of the source.

Key:
Solubility in water = format: physicochemical; settings: for solubility: water
[1] = Water-solubility test (visual inspection); format: physicochemical
Method: The solubility of each compound in the water was evaluated by following protocol. Deionized water (1 ml) was added into glass tube containing 10 mg of compound. After shaking for 10 minutes the sample was visually inspected and formation of solution or suspension was documented.

[2] = Pharmacokinetics in rats after single oral dose: anle138b in PEG/Cremophor (Phase 1) vs sery433 in aqueous buffer (Phase 2); format: in vivo, male Sprague Dawley rats; settings: anle138b combined with excipients based on PEG/cremophor
Method: In the experiment, a single oral dose of anle138b in PEG/Cremophor (“Phase 1”) and sery433 in aqueous solution (“Phase 2”) at a nominal dose of 10 mg/kg were administered to male Sprague Dawley Rats. The experiments were conducted with three rats which are identified as “1M”, “2M” and “3M”.
This study was designed to assess the pharmacokinetics of anle138b and sery433 in male Sprague Dawley rats following single oral administration of anle138b (Phase 1) and sery433 (Phase 2). During Phase 1 and Phase 2 animals received each test compound, appropriately formulated, on one of two separate dose occasions in a cross over design. The dose level was 10 mg/kg for both compounds. The amount of sery433 was not corrected to the amount of anle138b which is present in the prodrug, so that due to the higher molecular weight of sery433 actually a lower amount of active agent was administered.
Phase 1: three naïve male CD rats were dosed orally with anle138b at a target dose level of 10 mg/kg.
Phase 2: one week later (wash out period), sery433 at a target dose of 10 mg/kg was administered orally to the same animals.
During each phase an individual serial plasma profile was drawn from each animal over a period of 24 hours after dosing.
The vehicle was prepared by weighing Cremophor RH40 (45% of final volume); PEG400 (35% of final volume) and Capryol 90 (20% of final volume). […]

| solubility (in words) (Solubility in water) | Result of solubility test ([1]; 10 mg compound in 1 ml deionized water, shaking 10 minutes, visual inspection) | solubility at 10 min ([1]; deionized water, water, thermodynamic from solid, read-out: amount soluble in water) | anle138b exposure relative to the exposure reached by administration of sery433 [2] | solubility (Solubility in water; read-out: solubility in water) | solubility (Solubility in water; restates 0.2 μM, read-out: water-solubility) | SMILES |
| --- | --- | --- | --- | --- | --- | --- |
| even less soluble than anle138b |  |  |  |  |  | CN(C)c1ccc(-c2cc(-c3cccc(Br)c3)[nH]n2)cc1 [Anle253b, 5-(3-Bromophenyl)-3-(4-dimethylaminophenyl)-1H-pyrazole] |
|  | insoluble | 0.0686 µg/mL (≈ 0.2 µM) | 25% | 0.2 µM | 0.07 µg/mL | Brc1cccc(-c2cc(-c3ccc4c(c3)OCO4)n[nH]2)c1 [anle138b, 5-(3-Bromophenyl)-3-(3,4-methylenedioxyphenyl)-1H-pyrazole] |
